# Source: patent EP0398217B1, “Dehydrocholecalciferol derivatives” (F. HOFFMANN-LA ROCHE AG, priority 1989, dated 1990)
# pEC50: −log10 of the molar value. Marks after values point to notes of the source that are not given here.
# Columns and labels:
# [1] = test system: menschlichen Sebocyten; assay: Inhibition of sebocyte proliferation in vitro (sebocytes cultured on 3T3 fibroblast layer, cell count by haemocytometer); assay type: cell-based; conditions: amount inhibiting sebocyte proliferation by 50% versus solvent-treated control culture, read-out: ED₅₀
# Description: 22a, Abstract 46 beschriebenen Methode isoliert und auf einer Schicht von Mäusen-Fibroblasten 3T3 kultiviert. Durch enzymatische und mechanische Methoden wurde aus Hautgewebe eine Suspension von Sebocyten hergestellt. Dazu wurden die Zellen entweder in 2% Humanserum, 8% fetales Kälberserum und 4 µg/ml Dexamethason oder in 10% fetales Kälberserum und 4 µg/ml Dexamethason enthaltendem Iscove-Medium kultiviert
# Den Kulturen wurden die Testverbindungen im Medium alle 48 Stunden zugegeben. Nach der letzten Zugabe wurden die Fibroblasten 3T3 mit 0,03% EDTA in PBS abgespült. Die zurückbleibenden Sebocyten-Kolonien wurden in 0,05% Trypsin/0,03% EDTA unter Bildung einer einheitlichen Zellensuspension von Sebocyten inkubiert. Die Zellen wurden dann verdünnt und mittels eines Hämocytometers gezählt.
# Es wurden 10⁻² M äthanolische Lösungen der Testverbindungen vorbereitet und dann auf 10⁻⁶, 10⁻⁷, 10⁻⁸ und 10⁻⁹ M verdünnt.
# Die Resultate sind in der nachstehenden Tabelle 1 als Menge der Verbindung, die die Proliferation der Sebocyten um 50% gegenüber einem Kontrollwert hemmen, angegeben. Der Kontrollwert wurde aus einer lediglich mit Lösungsmittel behandelten Zellenkultur erhalten. Tabelle 1
# [2] = Soft tissue calcification in rats (45Ca radioactivity in heart and kidneys); assay type: in vivo, Ratten; conditions: ratio relative to compound X (=1); for Verkalkungsverhältnis Subkutan: subcutaneous administration for 4 days; for Verkalkungsverhältnis Topisch: topical administration for 4 days
# Description: Zum Nachweis der Verkalkung von weichem Gewebe durch die Verbindungen der Formel I erhielten Ratten subkutane Injektionen von 40 µCi ⁴⁵Ca. Die Verbindungen wurden dann subkutan oder topisch während 4 Tagen den Tieren verabreicht. Die Ratten wurden 1 Tag nach der letzten Injektion getötet. Herz und Nieren wurden entfernt und mit Salpetersäure behandelt. Es wurde die Radioaktivität einer Menge von 0,2 ml dieser Präparation gemessen.
# [3] = test system: Talgdrüsen des Hamsterohrs; assay: Effect on sebaceous glands of the hamster ear after oral administration (daily for 4 weeks); assay type: in vivo, syrischen Goldhamstern; conditions: change of sebaceous gland cross-section
# Description: Der Effekt von Verbindungen der Formel I auf die Talgdrüsen des Hamsterohrs nach oraler Verabreichung wurde ermittelt. Männlichen syrischen Goldhamstern wurden täglich 200 µl einer Lösung der Testverbindungen in Propylenglykol oral verabreicht. Nach 4 Wochen wurden die Tiere getötet. Die Fläche der Talgdrüsen auf den Ohren wurde ermittelt. Die Resultate sind in Tabelle 4 als Veränderung im Querschnitt der Talgdrüsen des Hamsterohrs angegeben: Tabelle 4
# [4] = test system: Talgdrüsen des Hamsterohrs; assay: Topical activity on sebaceous glands of the hamster ear (daily application for 4 weeks); assay type: in vivo; conditions: change of sebaceous gland cross-section versus acetone controls
# Description: Die topische Wirksamkeit von Verbindungen der Formel I gegen Akne wurde an Talgdrüsen des Hamsterohrs gemessen. Versuchstieren wurden 50 µl einer Lösung der Testverbindung und Kontrolltieren 50 µl Aceton täglich auf das Ohr appliziert. Nach 4 Wochen wurden die Tiere getötet. Die Fläche der Talgdrüsen auf den Ohren wurde ermittelt. In der Tabelle 2 sind die Resultate als %-Aenderung gegenüber Kontrolltieren der Veränderung des Querschnitts der Talgdrüsen auf dem Hamsterohr angegeben: Tabelle 2
# [5] = oral, 5,00 µg/kg daily in propylene glycol
# [6] = topical, 10,00 µg/Hamster daily
SMILES,pEC50 [1],Verkalkungsverhältnis Subkutan [2],Verkalkungsverhältnis Topisch [2],"% Veränderung ([3]; oral, 0,05 µg/kg daily in propylene glycol)","% Veränderung ([3]; oral, 0,50 µg/kg daily in propylene glycol)","% Veränderung [3, 5]","% Veränderung ([3]; oral, 50,00 µg/kg daily in propylene glycol)","% Aenderung ([4]; topical, 0,10 µg/Hamster daily)","% Aenderung ([4]; topical, 1,00 µg/Hamster daily)","% Aenderung [4, 6]","% Veränderung ([3]; oral, 2,50 µg/kg daily in propylene glycol)","% Veränderung ([3]; oral, 10,00 µg/kg daily in propylene glycol)","% Veränderung ([3]; oral, 20,00 µg/kg daily in propylene glycol)"
"C=C1/C(=C\C=C2/CCC[C@]3(C)C([C@H](C)CCCC(C)(C)O)=CC[C@@H]23)C[C@@H](O)C[C@@H]1O [A, 1α,25-Dihydroxy-16-dehydrocholecalciferol]",9.00,–,–,–,–,–,–,–,–,–,–,–,–
"C=C1CC[C@H](O)C/C1=C/C=C1\CCC[C@]2(C)C([C@H](C)CC#CC(C)(C)O)=CC[C@@H]12 [F, 25-Hydroxy-16-dehydro-23-didehydrocholecalciferol]",7.00,>1400,>34,-16* %,-23** %,-42*** %,-55*** %,-23%,-40%,-64%,–,–,–
"C=C1CC[C@H](O)C/C1=C/C=C1\CCC[C@]2(C)C([C@H](C)C/C=C/C(C)(C)O)=CC[C@@H]12 [Verbindung D, 25-Hydroxy-16,23E-bisdehydrocholecalciferol]",< 6.00,>1400,>34,–,–,-22** %,–,-16%,-16%,-43%,-15* %,-27*** %,-36*** %
"C=C1/C(=C\C=C2/CCC[C@]3(C)C([C@H](C)CC#CC(C)(C)O)=CC[C@@H]23)C[C@@H](O)C[C@@H]1O [Verbindung E, 1α,25-Dihydroxy-16-dehydro-23-didehydrocholecalciferol]",9.00,47,> 1,–,–,–,–,–,–,–,–,–,–
"C=C1/C(=C\C=C2/CCC[C@]3(C)[C@@H]([C@H](C)CCCC(C)(C)O)CC[C@@H]23)C[C@@H](O)C[C@@H]1O [Verbindung X, 1α,25-Dihydroxycholecalciferol, reference compound]",8.30,1,1,–,–,–,–,–,–,–,–,–,–
